Test results as given in patent US12358999B2, “Protein recognizing drug moiety of antibody-drug conjugate” (DAIICHI SANKYO COMPANY, LIMITED, priority 2018, dated 2025).
Counter-ions that a name gives are not always drawn.

T1: topoisomerase I (Homo sapiens, UniProt P11387)
T1 sequence (P11387 1-765): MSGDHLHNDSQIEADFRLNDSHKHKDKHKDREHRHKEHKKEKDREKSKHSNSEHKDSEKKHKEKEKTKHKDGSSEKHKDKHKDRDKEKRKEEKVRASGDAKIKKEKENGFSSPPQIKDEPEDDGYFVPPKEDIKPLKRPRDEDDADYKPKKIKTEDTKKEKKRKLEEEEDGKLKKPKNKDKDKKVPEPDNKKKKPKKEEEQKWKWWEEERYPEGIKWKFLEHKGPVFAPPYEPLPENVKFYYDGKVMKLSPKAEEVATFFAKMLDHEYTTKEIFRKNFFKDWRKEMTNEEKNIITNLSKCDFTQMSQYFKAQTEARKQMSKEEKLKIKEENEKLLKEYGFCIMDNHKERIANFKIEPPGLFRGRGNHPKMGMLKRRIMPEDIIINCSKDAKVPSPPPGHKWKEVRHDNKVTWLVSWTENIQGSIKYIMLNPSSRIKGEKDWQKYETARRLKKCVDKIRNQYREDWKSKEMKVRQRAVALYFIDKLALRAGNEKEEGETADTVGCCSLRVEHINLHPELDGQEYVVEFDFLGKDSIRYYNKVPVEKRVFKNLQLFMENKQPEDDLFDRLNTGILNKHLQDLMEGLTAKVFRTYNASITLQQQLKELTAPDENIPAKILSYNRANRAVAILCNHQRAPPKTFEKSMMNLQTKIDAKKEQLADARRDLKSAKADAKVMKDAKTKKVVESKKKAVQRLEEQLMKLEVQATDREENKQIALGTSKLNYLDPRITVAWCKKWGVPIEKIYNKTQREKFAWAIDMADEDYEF

B1: rabbit chimeric antibody 1A3: rabbit chimeric antibody derived from mouse antibody 1A3; heavy chain SEQ ID NO: 19, light chain SEQ ID NO: 20 (antibody)
heavy: MKHLWFFLLLVAAPRWVLSEVKLVESGGGLVQPGGSRKLSCAASGFTFSDYGMVWIRQAPGRGLEWVAYISSGSSAIYYADTVKGRFTISRDNPKNTLFLQMNSLRSEDSAMYFCARPPRYDVYSAWFAYWGQGTLVTVSAGQPKAPSVFPLAPCCGDTPSSTVTLGCLVKGYLPEPVTVTWNSGTLTNGVRTFPSVRQSSGLYSLSSVVSVTSSSQPVTCNVAHPATNTKVDKTVAPSTCSKPTCPPPELLGGPSVFIFPPKPKDTLMISRTPEVTCVVVDVSQDDPEVQFTWYINNEQVRTARPPLREQQFNSTIRVVSTLPITHQDWLRGKEFKCKVHNKALPAPIEKTISKARGQPLEPKVYTMGPPREELSSRSVSLTCMINGFYPSDISVEWEKNGKAEDNYKTTPAVLDSDGSYFLYNKLSVPTSEWQRGDVFTCSVMHEALHNHYTQKSISRSPGK
light: MVLQTQVFISLLLWISGAYGDIVMTQSHKFMSTSVGDRVSITCKASQDVGSAVVWYQQKPGHSPDLLIYWASTRHTGVPDRFTGSGSGTDFTLTIGNVQSEDLADYFCQQYSSYPVTFGGGTKLEIKRDPVAPSVLLFPPSKEELTTGTATIVCVANKFYPSDITVTWKVDGTTQQSGIENSKTPQSPEDNTYSLSSTLSLTSAQYNSHSVYTCEVVQGSASPIVQSFNRGDC

Assays:
[1] = system: mouse antibody 1A3; test: Competitive inhibition with HER2-ADC (I), chemical structure recognized by mouse antibody 1A3 (Gyrolab); type: binding; conditions: compound 1 and 100 μg/mL dilution solutions; response at HER2-ADC (I) 250 ng/mL
Text: The chemical structure to be recognized by mouse antibody 1A3 was checked by competitive inhibition with HER2-ADC (I) using Gyrolab xP workstation (GYROS PROTEIN Technologies). As the compound for use in competitive inhibition, compound (1), compound (2), compound (7), compound (8), compound (9), compound (10), compound (11), Topotecan and Rubitecan were selected.
As the capture reagent, mouse antibody 1A3 labeled with biotin by a labeling kit (ChromaLink Biotin Protein LABELING Kit, Solulink) was used. The concentration thereof was controlled to be 700 nM with 0.1% PS20-containing PBS. The compounds for use in competitive inhibition, compound (1), compound (2), compound (7), compound (8), compound (9), compound (10), compound (11), Topotecan and Rubitecan were separately dissolved in DMSO. The solutions each was diluted with 10% or 20% DMSO in Rexxip HN (GYROS PROTEIN Technologies) to prepare 0, 1 and 100 μg/mL dilution solutions. To each of them, the 700 nM mouse antibody 1A3 solution was added in an equal amount. The mixture was stirred and allowed to react at room temperature in a dark place for one hour or more. The concentration of HER2-ADC (I) was controlled with Rexxip HN to be 0, 0.244, 0.977, 3.91, 15.6, 62.5, 250 and 1000 ng/mL. As the detection reagent, Mouse Anti-(Anti-HER2 Ab) idiotype Ab (13C1) (IBL) was labeled by DyLight650 (registered trademark) labeling kit and put in use. The concentration thereof was controlled with Rexxip F (GYROS PROTEIN Technologies) to be 10 nM. The above solution was set at Gyrolab xP workstation and measurement was carried out by use of Gyrolab Bioaffy 200 at 200-3W-002-A (PMT5). The regression analysis was carried out by use of Gyrolab Evaluator 3.4.0.24 in 4-parametric logistic model (weight: Response). The calibration curve of HER2-ADC (I) was prepared per concentration of the competitive inhibition compound. The inhibition rate (%) was calculated by comparing the response at an HER2-ADC (I) concentration of 250 ng/mL to that of the case where no compound was added (concentration 0 ng/mL).

[2] = target: T1, topoisomerase I; conditions: cited from earlier work
[3] = system: sera of BALB/c mice and BDF1 mice after immunization; test: Inhibition ELISA of immunized mouse sera on immobilized antigen protein (2); type: binding; conditions: sera diluted 50000 fold; compound 12.5-100 μg/mL
Experimental: To the sera of BALB/c mice (4 individuals) and BDF1 mice (4 individuals) after immunization through four administrations, compound (6), compound (7) and compound (1) as positive controls and compound (8) as a negative control were added and the unabsorption rate to antigen protein (2) was calculated. The mouse sera diluted to 50000 fold and compound (6), compound (8), compound (7) and compound (1), which were prepared to have a concentration of 12.5, 25, 50 and 100 μg/mL, were mixed and allowed to react at 4° C. overnight, and then, added to ELISA immunoplates having the antigen protein (2) immobilized thereon and allowed to react at 37° C. for 30 minutes. After washing, anti-mouse IgG-HRP was allowed to react at 37° C. for 30 minutes. After washing, an OPD solution was added. After termination of color development, absorbance at 490 nm was measured. The unabsorption rate was calculated in accordance with the following expression: Unabsorption rate(%)=(a/b)×100
a: Absorbance of positive control or negative control at an addition concentration of 12.5 μg/mL
b: Absorbance of a sample not containing positive control or a sample not containing a negative control

[4] = system: GPR20-ADC (I); test: Immunostaining with rabbit chimeric antibody 1A3, GIST-T1/GPR20 subcutaneous tumor after GPR20-ADC (I); type: binding, nude mouse
[5] = system: TROP2-ADC (I); test: Immunostaining with rabbit chimeric antibody 1A3, FaDu subcutaneous tumor after TROP2-ADC (I); type: binding, nude mouse
Experimental: To an immunodeficient mouse (nude mouse), human head and neck cancer cell line FaDu was subcutaneously transplanted. After TROP2-ADC (I) was administered, the tumor tissue was taken to prepare paraffin-embedded specimens. Then, stainability of rabbit chimeric antibody 1A3 was examined. The tumor tissue was taken from a nude mouse to which an anti-TROP2 antibody (an antibody comprising a heavy chain consisting of amino acid sequence of amino acid residues 20 to 470 of SEQ ID NO: 25 and a light chain consisting of amino acid sequence of amino acid residues 21 to 234 of SEQ ID NO: 26, hereinafter referred to as “Anti-TROP2 Ab”) and used as a negative control. Deparaffinization and antigen activation were carried out using Autostainer Link pretreatment system (PT Link, manufactured by DAKO) and an antigen retrieval solution (Target Retrieval Solution Low pH, manufactured by DAKO) at 97° C. for 40 minutes. The following staining operation was carried out using an automatic staining device (Dako Autostainer Link 48: manufactured by DAKO) at room temperature. After washing once with EnVision FLEX WASH BUFFER (manufactured by DAKO), REAL Peroxidase-Blocking Solution (manufactured by DAKO) was added; incubation was carried out for 5 minutes; and washing was carried out once with EnVision FLEX WASH BUFFER. […]

Row | Molecule | competitive inhibition of recognition of mouse antibody 1A3 to HER2-ADC (I) (inhibition rate, FIG. 41) [1] | inhibition effect on binding of mouse sera to antigen protein (2) (unabsorption rate) [3] | further results
1 | CC[C@@]1(O)C(=O)OCc2c1cc1n(c2=O)Cc2cc3c([N+](=O)[O-])cccc3nc2-1 [Rubitecan] | did not exhibit competitive inhibition |  | 
2 | CC[C@@]1(O)C(=O)OCc2c1cc1n(c2=O)Cc2cc3c(CN(C)C)c(O)ccc3nc2-1 [Topotecan] | did not exhibit competitive inhibition |  | 
3 | CC[C@@]1(O)C(=O)OCc2c1cc1n(c2=O)Cc2c-1nc1cc(F)c(C)c3c1c2[C@@H](N)CC3 [compound (1), (1S,9S)-1-amino-9-ethyl-5-fluoro-1,2,3,9,12,15-hexahydro-9-hydroxy-4-methyl-10H,13H-benzo[de]pyrano[3′,4′:6,7]indolizino[1,2-b]quinoline-10,13-dione, reference compound] | strong competitive inhibition | high inhibition effect | topoisomerase I inhibitory activity [2]: topoisomerase I inhibitory activity
4 | CC[C@@]1(O)C(=O)OCc2c1cc1n(c2=O)Cc2c-1nc1cc(F)c(C)c3c1c2[C@@H](NC(=O)CCCNC(=O)CCCCCCC(=O)ON1C(=O)CCC1=O)CC3 [compound (6), 8-[(2,5-dioxopyrrolidin-1-yl)oxy]-N-(4-{[(1S,9S)-9-ethyl-5-fluoro-9-hydroxy-4-methyl-10,13-dioxo-2,3,9,10,13,15-hexahydro-1H,12H-benzo[de]pyrano[3′,4′:6,7]indolizino[1,2-b]quinolin-1-yl]amino}-4-oxobutyl)-8-oxooctane Amide] |  | high inhibition effect | 
5 | CC[C@]1(O)c2cc3n(c(=O)c2COC1O)Cc1c-3nc2cc(F)c(C)c3c2c1[C@@H](NC(=O)CCCN)CC3 (stereo partly drawn) [compound (7), 4-amino-N-[(1S,9S)-9-ethyl-5-fluoro-9,10-dihydroxy-4-methyl-13-oxo-2,3,9,10,13,15-hexahydro-1H,12H-benzo[de]pyrano[3′,4′:6,7]indolizino[1,2-b]quinolin-1-yl] butanamide Trifluoroacetate] | strong competitive inhibition | in some individuals have a high inhibition effect | 
6 | NCCCC(=O)NC1CCCCC1 [compound (8), 4-amino-N-cyclohexyl-butanamide Hydrochloride] | did not exhibit competitive inhibition | in none of the plasmas, a high inhibition effect | 
7 | CC[C@@]1(O)C(=O)OCc2c1cc1n(c2=O)Cc2c-1nc1ccc(C)c3c1c2CCC3 [compound (9)] | strong competitive inhibition |  | 
8 | CC[C@@]1(O)C(=O)OCc2c1cc1n(c2=O)Cc2c-1nc1cccc3c1c2C(N)CC3 (some centres unmarked) [compound (10)] | did not exhibit competitive inhibition |  | 
9 | CC[C@@]1(O)C(=O)OCc2c1cc1n(c2=O)Cc2c-1nc1cc(F)c(CO)c3c1c2[C@@H](N)CC3 [compound (11)] | did not exhibit competitive inhibition |  | 
10 | B1 |  |  | stainability to subcutaneous tumor tissue ([4]; animal administered with GPR20-ADC (I)): satisfactory stainability; stainability to subcutaneous tumor tissue ([4]; animal not administered with GPR20-ADC (I)): did not show stainability; stainability to subcutaneous tumor tissue ([5]; animal administered with TROP2-ADC (I), antibody 0.1 μg/mL): satisfactory stainability; stainability to subcutaneous tumor tissue ([5]; animal administered with anti-TROP2 Ab (negative control tissue)): did not show stainability
